# Test results as given in patent publication US20260226068A1, “IMIDAZOTRIAZINE IL-17A MODULATORS AND USES THEREOF” (DICE ALPHA, INC., priority 2023, published 2026).
# Tests used:
# IL-17A/A = molecular target: T1, IL-17A/A (Homo sapiens, UniProt Q16552); test: IL-17A/A HEK-Blue cell assay (SEAP reporter); assay type: cell-based; details: HEK-Blue IL-17A reporter cells, IL17A/A 5 ng/mL, 20 hours, SEAP read at A630; read-out: HEK-Blue IL17AA (IC50 for IL-17A/A inhibition)
# T1 construct: purchased Genscript Z03228
# T1 sequence (Q16552 24-155): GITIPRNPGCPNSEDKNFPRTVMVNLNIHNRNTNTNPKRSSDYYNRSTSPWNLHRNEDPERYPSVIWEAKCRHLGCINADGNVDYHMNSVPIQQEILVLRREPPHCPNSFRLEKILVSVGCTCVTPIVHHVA
# IL-17A/F = molecular target: T2, IL-17A/F (Homo sapiens, UniProt Q16552+Q96PD4); test: IL-17A/F HEK-Blue cell assay (SEAP reporter); assay type: cell-based; details: HEK-Blue IL-17A reporter cells, IL17A/F 5 ng/mL, 20 hours, SEAP read at A630; read-out: HEK-Blue IL17AF (IC50 for IL-17A/F inhibition)
# T2 construct: purchased R&D Systems
# T2 sequence (Q16552 24-155): T1 sequence (Q16552 24-155)
# T2 sequence (Q96PD4 31-163): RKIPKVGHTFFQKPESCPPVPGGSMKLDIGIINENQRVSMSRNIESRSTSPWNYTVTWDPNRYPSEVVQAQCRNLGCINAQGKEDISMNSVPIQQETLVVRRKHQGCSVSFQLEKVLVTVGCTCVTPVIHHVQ
smiles,measurement,setting,value
"CCn1ncnc1C(=O)N[C@H](c1cn2nc(C[C@H]3C[C@@H](C(F)(F)F)CNC3=O)c(C3CCOCC3)nc2n1)[C@H]1CC[C@H](C)CC1 [Compound 383, 1-ethyl-N—((S)-((1r,4S)-4-methylcyclohexyl)(2-(((3R,5R)-2-oxo-5-(trifluoromethyl)piperidin-3-yl)methyl)-3-(tetrahydro-2H-pyran-4-yl)imidazo[1,2-b][1,2,4]triazin-6-yl)methyl)-1H-1,2,4-triazole-5-carboxamide]",IC50,IL-17A/A,< 100 nM
same,IC50,IL-17A/F,100 to 1000 nM
"CCn1ncnc1C(=O)N[C@H](c1cn2nc(C[C@H]3C[C@@H](C(F)(F)F)CNC3=O)c(C3CCOCC3)nc2n1)C(C1CC1)C1CC1 [Compound 385, N—((S)-2,2-dicyclopropyl-1-(2-(((3R,5R)-2-oxo-5-(trifluoromethyl)piperidin-3-yl)methyl)-3-(tetrahydro-2H-pyran-4-yl)imidazo[1,2-b][1,2,4]triazin-6-yl)ethyl)-1-ethyl-1H-1,2,4-triazole-5-carboxamide]",IC50,IL-17A/A,< 100 nM
same,IC50,IL-17A/F,> 1000 nM
"CCn1ncnc1C(=O)N[C@H](c1cn2nc(C[C@H]3C[C@@H](C(F)(F)F)CNC3=O)c(C(C)C)nc2n1)C1CCC(F)(F)CC1 [Compound 386, N—((S)-(4,4-difluorocyclohexyl)(3-isopropyl-2-(((3R,5R)-2-oxo-5-(trifluoromethyl)piperidin-3-yl)methyl)imidazo[1,2-b][1,2,4]triazin-6-yl)methyl)-1-ethyl-1H-1,2,4-triazole-5-carboxamide]",IC50,IL-17A/A,< 100 nM
same,IC50,IL-17A/F,> 1000 nM
CCn1ncnc1C(=O)N[C@H](c1cn2nc(C[C@H]3C[C@H](C)CNC3=O)c(C3CCOCC3)nc2n1)C1CCC(F)(F)CC1 [Compound 387],IC50,IL-17A/A,100 to 1000 nM
same,IC50,IL-17A/F,> 1000 nM
CCn1ncnc1C(=O)N[C@H](c1cn2nc(C[C@@H]3C[C@H](C)CNC3=O)c(C3CCOCC3)nc2n1)C1CCC(F)(F)CC1 [Compound 388],IC50,IL-17A/A,< 100 nM
same,IC50,IL-17A/F,> 1000 nM
CCn1nccc1C(=O)N[C@H](c1cn2nc(C[C@H]3C[C@@H](C)CNC3=O)c(C(C)C)nc2n1)C1CCC(F)(F)CC1 [Compound 389],IC50,IL-17A/A,100 to 1000 nM
same,IC50,IL-17A/F,> 1000 nM
CCn1nccc1C(=O)N[C@H](c1cn2nc(C[C@@H]3C[C@@H](C)CNC3=O)c(C(C)C)nc2n1)C1CCC(F)(F)CC1 [Compound 390],IC50,IL-17A/A,< 100 nM
same,IC50,IL-17A/F,100 to 1000 nM
CCn1nccc1C(=O)N[C@H](c1cn2nc(C[C@H]3C[C@H](C)CNC3=O)c(C(C)C)nc2n1)C1CCC(F)(F)CC1 [Compound 391],IC50,IL-17A/A,< 100 nM
same,IC50,IL-17A/F,> 1000 nM
CCn1nccc1C(=O)N[C@H](c1cn2nc(C[C@@H]3C[C@H](C)CNC3=O)c(C(C)C)nc2n1)C1CCC(F)(F)CC1 [Compound 392],IC50,IL-17A/A,< 100 nM
same,IC50,IL-17A/F,> 1000 nM
CCc1nonc1C(=O)N[C@H](c1cn2nc(C[C@H]3C[C@@H](C)CNC3=O)c(C3CCOCC3)nc2n1)C1CCC(F)(F)CC1 [Compound 393],IC50,IL-17A/A,100 to 1000 nM
same,IC50,IL-17A/F,> 1000 nM
CCc1nonc1C(=O)N[C@H](c1cn2nc(C[C@@H]3C[C@@H](C)CNC3=O)c(C3CCOCC3)nc2n1)C1CCC(F)(F)CC1 [Compound 394],IC50,IL-17A/A,< 100 nM
same,IC50,IL-17A/F,> 1000 nM
CCc1nonc1C(=O)N[C@H](c1cn2nc(C[C@H]3C[C@H](C)CNC3=O)c(C3CCOCC3)nc2n1)C1CCC(F)(F)CC1 [Compound 395],IC50,IL-17A/A,< 100 nM
same,IC50,IL-17A/F,> 1000 nM
CCc1nonc1C(=O)N[C@H](c1cn2nc(C[C@@H]3C[C@H](C)CNC3=O)c(C3CCOCC3)nc2n1)C1CCC(F)(F)CC1 [Compound 396],IC50,IL-17A/A,< 100 nM
same,IC50,IL-17A/F,> 1000 nM
Cc1nonc1C(=O)N[C@H](c1cn2nc(C[C@@H]3C[C@@H](C)CNC3=O)c(C3CCOCC3)nc2n1)C1CCC(F)(F)CC1 [Compound 397],IC50,IL-17A/A,< 100 nM
same,IC50,IL-17A/F,> 1000 nM
Cc1nonc1C(=O)N[C@H](c1cn2nc(C[C@H]3C[C@H](C)CNC3=O)c(C3CCOCC3)nc2n1)C1CCC(F)(F)CC1 [Compound 398],IC50,IL-17A/A,100 to 1000 nM
same,IC50,IL-17A/F,> 1000 nM
Cc1nonc1C(=O)N[C@H](c1cn2nc(C[C@@H]3C[C@H](C)CNC3=O)c(C3CCOCC3)nc2n1)C1CCC(F)(F)CC1 [Compound 399],IC50,IL-17A/A,< 100 nM
same,IC50,IL-17A/F,> 1000 nM
Cn1nccc1C(=O)N[C@H](c1cn2nc(C[C@H]3C[C@@H](C(F)(F)F)CNC3=O)c(C3CCOCC3)nc2n1)C1CCCCC1 [Compound 405],IC50,IL-17A/A,< 100 nM
same,IC50,IL-17A/F,100 to 1000 nM
"CCn1nccc1C(=O)N[C@H](c1cn2nc(C[C@H]3C[C@@H](C(F)(F)F)CNC3=O)c(CN3CCOCC3)nc2n1)C(C1CC1)C1CC1 [Compound 406, N—((S)-2,2-dicyclopropyl-1-(3-(morpholinomethyl)-2-(((3R,5R)-2-oxo-5-(trifluoromethyl)piperidin-3-yl)methyl)imidazo[1,2-b][1,2,4]triazin-6-yl)ethyl)-1-ethyl-1H-pyrazole-5-carboxamide]",IC50,IL-17A/A,< 100 nM
same,IC50,IL-17A/F,100 to 1000 nM
Cc1nonc1C(=O)N[C@H](c1cn2nc(C[C@H]3C[C@@H](C(F)(F)F)CNC3=O)c(CN3CCOCC3)nc2n1)C1CCC(F)(F)CC1 [Compound 407],IC50,IL-17A/A,100 to 1000 nM
same,IC50,IL-17A/F,> 1000 nM
"CCn1nccc1C(=O)N[C@H](c1cn2nc(C[C@H]3C[C@@H](C(F)(F)F)CNC3=O)c(CN3CCOCC3C)nc2n1)[C@H]1CC[C@H](C)CC1 (stereo partly drawn) [Compound 408, 1-ethyl-N-((1S)-((1r,4S)-4-methylcyclohexyl)(3-((3-methylmorpholino)methyl)-2-(((3R,5R)-2-oxo-5-(trifluoromethyl)piperidin-3-yl)methyl)imidazo[1,2-b][1,2,4]triazin-6-yl)methyl)-1H-pyrazole-5-carboxamide]",IC50,IL-17A/A,< 100 nM
same,IC50,IL-17A/F,< 100 nM
CCn1ncnc1C(=O)N[C@H](c1cn2nc(C[C@H]3C[C@@H](C(F)(F)F)CNC3=O)c(C3CCOCC3)nc2n1)C1CCCCC1 [Compound 409],IC50,IL-17A/A,< 100 nM
same,IC50,IL-17A/F,> 1000 nM
CCn1ncnc1C(=O)N[C@H](c1cn2nc(C[C@H]3C[C@@H](C(F)(F)F)CNC3=O)c(C3CCOCC3)nc2n1)C1CCCCCC1 [Compound 410],IC50,IL-17A/A,< 100 nM
same,IC50,IL-17A/F,100 to 1000 nM
"Cc1nonc1C(=O)N[C@H](c1cn2nc(C[C@H]3C[C@@H](C(F)(F)F)CNC3=O)c(N3CCN(C)C4(CC4)C3)nc2n1)C1CCC(F)(F)CC1 [Compound 411, N—((S)-(4,4-difluorocyclohexyl)(3-(4-methyl-4,7-diazaspiro[2.5]octan-7-yl)-2-(((3R,5R)-2-oxo-5-(trifluoromethyl)piperidin-3-yl)methyl)imidazo[1,2-b][1,2,4]triazin-6-yl)methyl)-4-methyl-1,2,5-oxadiazole-3-carboxamide]",IC50,IL-17A/A,< 100 nM
same,IC50,IL-17A/F,> 1000 nM
"CCn1nccc1C(=O)N[C@H](c1cn2nc(C[C@H]3C[C@@H](C(F)(F)F)CNC3=O)c(CN3CCN(C)CC3)nc2n1)C1CCC(F)(F)CC1 [Compound 412, N—((S)-(4,4-difluorocyclohexyl)(3-((4-methylpiperazin-1-yl)methyl)-2-(((3R,5R)-2-oxo-5-(trifluoromethyl)piperidin-3-yl)methyl)imidazo[1,2-b][1,2,4]triazin-6-yl)methyl)-1-ethyl-1H-pyrazole-5-carboxamide]",IC50,IL-17A/A,100 to 1000 nM
same,IC50,IL-17A/F,> 1000 nM
CCn1nccc1C(=O)N[C@H](c1cn2nc(C[C@H]3C[C@@H](C(F)(F)F)CNC3=O)c(C3CCCN3C)nc2n1)C1CCC(F)(F)CC1 (some centres unmarked) [Compound 413],IC50,IL-17A/A,100 to 1000 nM
same,IC50,IL-17A/F,> 1000 nM
